Experimental data reported in patent publication US20250339399A1, “SUPRAMOLECULAR SELF-ASSEMBLY SYSTEM” (Beijing Creatron Institute of Pharmaceutical Research Co., …, priority 2022, published 2025).
Counter-ions that a name gives are not always drawn. Like-named read-outs stand apart in the source and are kept apart here. One block for each compound: values may come before it.

Experiments:
[1] = Guest molecule concentration after incubation in initial medium without polymer (Comparative Example 1); assay type: physicochemical; details: 37° C., pH 6.8 phosphate buffer
Method in brief: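 Dissolved guest content measured by HPLC of centrifuged supernatants (37° C., 13000 rpm, 5 min) sampled at 0.5 h, 3 h and 6 h. Incubation was polymer-free at 37° C.±0.5° C. in buffers of pH 2.0-7.4; nominal loading was set by maximum clinical dose.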

[2] = Binary supramolecular self-assembly systems of polymer and target: guest concentration over incubation time (Comparative Example 2); assay type: physicochemical; details: for Concentration of guest molecule in solution / Times that of the initial medium: 6 h
Protocol: Experiments were conducted according to the steps in Comparative Example 1, and quantitative analysis was carried out using the analytical method for each target to investigate the regulation ability […] stacking.

[3] = parent flavonoid of the class; value follows the class name; cited from earlier work
[4] = cited from earlier work
[5] = human use, cited from earlier work

Concentration of guest molecule measured after different incubated time ([1]; 0.5 h): 169.9 µg/mL
Concentration of guest molecule measured after different incubated time ([1]; 3 h): 126.7 µg/mL
Concentration of guest molecule measured after different incubated time ([1]; 6 h): 129.1 µg/mL
Concentration of the target in the solution measured after different incubation time ([2]; binary system with 0.5% polymer 101, incubation 0.5 h): 412.1 µg/mL
Concentration of the target in the solution measured after different incubation time ([2]; binary system with 0.5% polymer 101, incubation 3 h): 214.9 µg/mL
Concentration of the target in the solution measured after different incubation time ([2]; binary system with 0.5% polymer 101, incubation 6 h): 126.4 µg/mL
Concentration of the target in the solution measured after different incubation time ([2]; binary system with 0.5% polymer 102, incubation 0.5 h): 456.4 µg/mL
Concentration of the target in the solution measured after different incubation time ([2]; binary system with 0.5% polymer 102, incubation 3 h): 389.1 µg/mL
Concentration of the target in the solution measured after different incubation time ([2]; binary system with 0.5% polymer 102, incubation 6 h): 383.3 µg/mL
Concentration of the target in the solution measured after different incubation time ([2]; binary system with 0.5% polymer 103, incubation 0.5 h): 230.7 µg/mL
Concentration of the target in the solution measured after different incubation time ([2]; binary system with 0.5% polymer 103, incubation 3 h): 231.0 µg/mL
Concentration of the target in the solution measured after different incubation time ([2]; binary system with 0.5% polymer 103, incubation 6 h): 233.5 µg/mL
Concentration of the target in the solution measured after different incubation time ([2]; binary system with 0.5% polymer 106, incubation 0.5 h): 469.5 µg/mL
Concentration of the target in the solution measured after different incubation time ([2]; binary system with 0.5% polymer 106, incubation 3 h): 462.5 µg/mL
Concentration of the target in the solution measured after different incubation time ([2]; binary system with 0.5% polymer 106, incubation 6 h): 478.8 µg/mL
Concentration of the target in the solution measured after different incubation time ([2]; binary system with 0.5% polymer 107, incubation 0.5 h): 127.5 µg/mL
Concentration of the target in the solution measured after different incubation time ([2]; binary system with 0.5% polymer 107, incubation 3 h): 130.9 µg/mL
Concentration of the target in the solution measured after different incubation time ([2]; binary system with 0.5% polymer 107, incubation 6 h): 139.1 µg/mL
Concentration of the target in the solution measured after different incubation time ([2]; binary system with 0.5% polymer 110, incubation 0.5 h): 112.7 µg/mL
Concentration of the target in the solution measured after different incubation time ([2]; binary system with 0.5% polymer 110, incubation 3 h): 79.0 µg/mL
Concentration of the target in the solution measured after different incubation time ([2]; binary system with 0.5% polymer 110, incubation 6 h): 77.6 µg/mL
Concentration of guest molecule in solution ([2]; binary: 0.5% 102H): 383.3 µg/mL
Times that of the initial medium ([2]; binary: 0.5% 102H): 3.0 times
Concentration of guest molecule in solution ([2]; binary: 0.5% 103E5): 233.5 µg/mL
Times that of the initial medium ([2]; binary: 0.5% 103E5): 1.8 times
Compound: O=C1C[C@@H](c2ccc(O)cc2)Oc2cc(O)cc(O)c21 [Naringenin]
solubility value given in Table 1 (basic information of natural flavonoids) [3]: Naringenin (CAS 480-41) derivatives, EUF-0.58 mg/ml
LogP [4]: LogP 2.71

Compound: O=C(O[C@@H]1Cc2c(O)cc(O)cc2O[C@@H]1c1cc(O)c(O)c(O)c1)c1cc(O)c(O)c(O)c1 [compound 303, (−)−Epigallocatechin 3-gallate]
Acceptable daily intake (ADI) [5]: 135-270 mg/person/ day mg/person/day

Compound: C=C1C[C@@]23CC[C@H]4[C@@](C)(CCC[C@@]4(C)C(=O)O)[C@@H]2CC[C@]1(O[C@@H]1O[C@H](CO)[C@@H](O)[C@H](O[C@@H]2O[C@H](CO)[C@@H](O)[C@H](O)[C@H]2O)[C@H]1O[C@@H]1O[C@H](CO)[C@@H](O)[C@H](O)[C@H]1O)C3 [compound 307, Rebaudioside B]
Acceptable daily intake (ADI) ([5]; bw: body weight): 6 mg/kg bw/day

Compound: C=C1C[C@@]23CC[C@H]4[C@@](C)(CCC[C@@]4(C)C(=O)O[C@@H]4O[C@H](CO)[C@@H](O)[C@H](O)[C@H]4O)[C@@H]2CC[C@]1(O[C@@H]1O[C@H](CO)[C@@H](O)[C@H](O[C@@H]2O[C@H](CO)[C@@H](O)[C@H](O)[C@H]2O)[C@H]1O[C@@H]1O[C@@H](C)[C@H](O)[C@@H](O)[C@H]1O)C3 [compound 308, Rebaudioside C]
Acceptable daily intake (ADI) ([5]; bw: body weight): 6 mg/kg bw/day

Compound: C[C@@H]1O[C@@H](O[C@H]2[C@H](Oc3cc(O)c(C(=O)CCc4ccc(O)cc4)c(O)c3)O[C@H](CO)[C@@H](O)[C@@H]2O)[C@H](O)[C@H](O)[C@H]1O [compound 312, Naringin dihydrochalcone]
Acceptable daily intake (ADI) [5]: 41 mg/person/ day mg/person/day

Compound: CC1(C)[C@@H](O[C@H]2O[C@H](C(=O)O)[C@@H](O)[C@H](O)[C@H]2O[C@@H]2O[C@H](C(=O)O)[C@@H](O)[C@H](O)[C@H]2O)CC[C@]2(C)[C@H]3C(=O)C=C4[C@@H]5C[C@@](C)(C(=O)O)CC[C@]5(C)CC[C@@]4(C)[C@]3(C)CC[C@@H]12 [compound 314, Glycyrrhizic acid and its ammonium salt]
Acceptable daily intake (ADI) ([5]; bw: body weight): 2 mg/kg bw/day

Compound: C=C1C[C@@]23CC[C@H]4[C@@](C)(CCC[C@@]4(C)C(=O)O[C@@H]4O[C@H](CO)[C@@H](O)[C@H](O)[C@H]4O)[C@@H]2CC[C@]1(O[C@@H]1O[C@H](CO)[C@@H](O)[C@H](O)[C@H]1O[C@@H]1O[C@H](CO)[C@@H](O)[C@H](O)[C@H]1O)C3 [compound 315, Stevioside]
Acceptable daily intake (ADI) ([5]; bw: body weight): 4 mg/kg bw/day

Compound: O=C(OC[C@H]1O[C@@H](OC(=O)c2cc(O)c(O)c(OC(=O)c3cc(O)c(O)c(O)c3)c2)[C@H](OC(=O)c2cc(O)c(O)c(OC(=O)c3cc(O)c(O)c(O)c3)c2)[C@@H](OC(=O)c2cc(O)c(O)c(OC(=O)c3cc(O)c(O)c(O)c3)c2)[C@@H]1OC(=O)c1cc(O)c(O)c(OC(=O)c2cc(O)c(O)c(O)c2)c1)c1cc(O)c(O)c(OC(=O)c2cc(O)c(O)c(O)c2)c1 [compound 316, Tannic acid]
Acceptable daily intake (ADI) ([5]; bw: body weight): 15 mg/kg bw/day

Compound: COc1ccc([C@@H]2CC(=O)c3c(O)cc(O[C@@H]4O[C@H](CO)[C@@H](O)[C@H](O)[C@H]4O[C@@H]4O[C@@H](C)[C@H](O)[C@@H](O)[C@H]4O)cc3O2)cc1O [compound 318, Neohesperidin]
Acceptable daily intake (ADI) ([5]; bw: body weight): 5 mg/kg bw/day

Compound: C[C@H](CC[C@@H](O[C@@H]1O[C@H](CO[C@@H]2O[C@H](CO)[C@@H](O)[C@H](O)[C@H]2O)[C@@H](O)[C@H](O)[C@H]1O[C@@H]1O[C@H](CO)[C@@H](O)[C@H](O)[C@H]1O)C(C)(C)O)[C@H]1CC[C@@]2(C)[C@@H]3CC=C4[C@@H](CC[C@H](O[C@@H]5O[C@H](CO[C@@H]6O[C@H](CO)[C@@H](O)[C@H](O)[C@H]6O)[C@@H](O)[C@H](O)[C@H]5O)C4(C)C)[C@]3(C)[C@H](O)C[C@]12C [compound 319, Mogroside V]
Acceptable daily intake (ADI) ([5]; bw: body weight): 0-2.5 mg/kg bw/day

Compound: C=C1C[C@@]23CC[C@H]4[C@@](C)(CCC[C@@]4(C)C(=O)O[C@@H]4O[C@H](CO)[C@@H](O)[C@H](O)[C@H]4O[C@@H]4O[C@H](CO)[C@@H](O)[C@H](O)[C@H]4O)[C@@H]2CC[C@]1(O[C@@H]1O[C@H](CO)[C@@H](O)[C@H](O[C@@H]2O[C@H](CO)[C@@H](O)[C@H](O)[C@H]2O)[C@H]1OC1O[C@H](CO)[C@@H](O)[C@H](O)[C@H]1O)C3 (some centres unmarked) [compound 320, Rebaudioside D]
Acceptable daily intake (ADI) ([5]; bw: body weight): 3-5 mg/kg bw/day

Compound: C=C1C[C@@]23CC[C@H]4[C@@](C)(CCC[C@@]4(C)C(=O)O[C@@H]4O[C@H](CO)[C@@H](O)[C@H](O[C@@H]5O[C@H](CO)[C@@H](O)[C@H](O)[C@H]5O)[C@H]4O[C@@H]4O[C@H](CO)[C@@H](O)[C@H](O)[C@H]4O)[C@@H]2CC[C@]1(O[C@@H]1O[C@H](CO)[C@@H](O)[C@H](O[C@@H]2O[C@H](CO)[C@@H](O)[C@H](O)[C@H]2O)[C@H]1OC1O[C@H](CO)[C@@H](O)[C@H](O)[C@H]1O)C3 (some centres unmarked) [compound 321, Rebaudioside M]
Acceptable daily intake (ADI) ([5]; bw: body weight): 4 mg/kg bw/day

Compound: Isoquercitrin [compound 304]
Acceptable daily intake (ADI) ([5]; bw: body weight): 3.3 mg/kg bw/day

Compound: Myricitrin [compound 306]
Acceptable daily intake (ADI) ([5]; bw: body weight): 14 mg/kg bw/day

Compound: Neohesperidin dihydrochalcone [compound 310]
Acceptable daily intake (ADI) ([5]; bw: body weight): 3-5 mg/kg bw/day
